Assay [1] relates to IL-1. In words: Addition of IL-1 receptor antagonist before FBG stimulation. The assay is classed as cell-based. The settings on record: 10 μg/ml IL1 receptor antagonist, data not shown. The method, then:
(§1) Where stated, cells were pre-incubated with 10 μg/ml anti-CD14 antibody, 10 μg/ml IL1 receptor antagonist, 10 μg/ml anti-TLR2 antibody, 25 μg/ml anti-TLR4 antibody, 10 or 25 μg/ml isotype control antibody, 25 μg/ml polymyxin B, or 1 μg/ml msbB LPS, for 30 minutes at 37° C. before stimulation. Where stated, recombinant tenascin-C and FBG, and LPS were boiled for 15 minutes before addition to cells
(§2) Supernatants were subsequently examined for the presence of the cytokines TNF-α, IL-6, and IL-8 by enzyme-linked immunosorbent assay (ELISA) according to the manufacturer's instructions. Absorbance was read on a spectrophotometric ELISA plate reader (Labsystems Multiscan Biochromic, Vantaa, Finland) and analyzed using the Ascent software program (Thermo Labsystems, Altrincham, UK).

The test system of assay [2] is primary human macrophages. In words: Cytokine synthesis in primary human macrophages stimulated with tenascin-C or its domains. The assay is classed as cell-based. The method, then: Human monocytes were isolated from peripheral blood (London Blood Bank) and macrophages were derived from monocytes after differentiation for 4 days with 100 ng/ml of M-CSF as previously described (Foxwell (1998)).
(§3) Immediately after isolation, RA membrane cells and macrophages were cultured at 1×10^5 cells/well in RPMI 1640 containing 10% (v/v) FBS and 100 U/ml (Units/ml) penicillin/streptomycin in 96-well tissue culture plates for 24 hours before stimulation. Synovial fibroblasts (used only at either passage number 2 or 3) were cultured at 1×10^4 cells/well in DMEM containing 10% (v/v) FBS and 100 U/ml penicillin/streptomycin in 96-well tissue culture plates for 24 hours before stimulation.
(§4) Cells were incubated for 24 hours at 37° C. with the indicated doses of tenascin-C and recombinant tenascin-C fragments (1.0 μM-1.0 nM). Cells were also stimulated where indicated with LPS (1 ng/ml for human macrophages, 10 ng/ml for human fibroblasts, RA membrane cells and HEKs, 100 ng/ml for MEFS and BMDMs and 10 ng/ml for HEKS), PAM3 (10 ng/ml for human macrophages, human fibroblasts, and HEKs, 100 ng/ml for MEFs and BMDMs), murine IL-1 (5 ng/ml for MEFS) and murine TNF-α (100 ng/ml for MEFS). Unless specifically stated otherwise rough LPS was used for in vitro studies.
as §1, §2

The subject of assay [3] is serum from RA patients. Briefly: Western blot of citrullinated tenascin-C probed with serum from RA patients or healthy controls. It counts as binding, human. The settings on record: sera from RA patients or normal healthy controls, not shown. The method, then: SDS PAGE of Citrullinated Proteins 33.33 ul of citrullination reaction (cit-TNC alone or cit-TNC combined with cit-FBG) was loaded into NuPAGE® Novex 4-12% Bis-tris gel using a 1.0 mm 2D single lane well.
After electrophoresis proteins were transferred to nitrocellulose and the membrane blocked and then cut into strips (up to 8 strips ˜0.7 cm wide). Strips were incubated with serum from RA patients or normal healthy individuals diluted 1:100 in 5% milk TBS-tween. Strips were incubated in 15 ml falcon tubes on rollers 1 h room temperature, then washed 3 ×5 min, 1×15 min in tubes with TBS-Tween. Strips were then incubated with secondary mouse anti-human Ig 1:5000 1 h in room temperature, then washed 3×5 min, 1×15 min in the dish with TBS-tween. Strips were finally incubated with ECL reagents and exposed to film.
For orientation: In western blotting, separated proteins are transferred to a membrane and probed.

For assay [4], the system named is RA synovial fibroblasts. Briefly: Cytokine synthesis in RA synovial fibroblasts stimulated with tenascin-C, FBG or LPS. It counts as cell-based, human.
Source text: RA membrane cells (representing a mixed population of all synovial cell types) were isolated from synovial membranes obtained from patients undergoing joint replacement surgery as previously described (Brennan (1989)). RA synovial fibroblasts were isolated from the mixed population of RA membrane cells as previously described (Brennan (1989)). The study was approved by the local Trust ethics committee (Riverside NHS Research Committee), and waste tissue (synovium after joint replacement surgery) was obtained only after receiving signed informed consent from the patient and anonymyzing the tissue to protect patient identity.
as §3, §4, §2

For the substance “IL-1 receptor antagonist: IL-1 receptor antagonist from R&D Systems”, the “FBG induction of cytokines” value in assay [1] is listed as “did not inhibit”.
As for “tenascin-C: recombinant full-length human tenascin-C purified from HEK293 conditioned medium”, the “heat and polymyxin B sensitivity of cytokine stimulation” value in assay [2] (boiled 15 min, 25 μg/ml polymyxin B pre-incubation) is “heat sensitive and unaffected by the LPS inhibitor, polymyxin B”. The “production of TNF-α, IL-6 and IL-8” value in assay [2] (human macrophages, 24 h, 1.0 μM-1.0 nM) is given as “dose dependently stimulated”. In addition, in assay [3], the “reactivity with sera in blots” value is given as “No reactivity”. The IL-6 synthesis result in assay [4] (RA synovial fibroblasts, 24 h) was “only induced IL-6 synthesis”. Also, the TNF-α synthesis entry in assay [4] (fibroblasts, data not shown) is recorded as “Neither LPS nor tenascin-C induced TNF-α synthesis”.

For the origin of these results see patent publication US20170009228A1, “BIOLOGICAL MATERIALS AND THERAPEUTIC USES THEREOF” (IMPERIAL INNOVATIONS LIMITED, priority 2014, published 2017).
